According to patent publication US5861424A, “Composition and method for treating cancer” (priority 1995, dated 1999):
Read-outs that look alike come from different tables or passages of the source.

Experiments:
[1] = tested on: human ovarian carcinoma OVCAR-3; experiment: Survival of nude mice implanted with human ovarian carcinoma OVCAR-3; format: in vivo, human ovarian carcinoma in athymic Swiss nu/nu mice
Description: A human ovarian carcinoma cell line, OVCAR-3, was used. Ten million cells of this cell line were injected IP into ten athymic Swiss nu/nu mice. Ten mice into which these cancer cells had been injected were selected as a control group and received in equal volume of 5% dextrose as that of the treated group. The compounds of the General Formulas (1) to (6) which were tested and the results obtained are shown in Table IX below and in FIG. 7-9 of the accompanying drawings.

[2] = tested on: human colon carcinoma CX-1; experiment: Anti-human colon carcinoma CX-1 activity in nude mice, tumor inhibition; format: in vivo, human colon carcinoma in Swiss nu/nu mice; conditions: Mus musculus, ip, 24 h
From the text: Human colon carcinoma cell line CX-1 has been chosen by the National Cancer Institute as a mode for cancer drug screening (NCI Protocol 3C2H2). It was established in culture from the surgical explant of the primary colon adenocarcinoma of a person with no previous chemotherapy. The cultured CX-1 cells, upon subcutaneous injection, can grow readily in nude mice as a moderately- to well-differentiated human colon carcinoma. CEA is expressed as expected for differentiated colon carcinoma cells. Abundant keratin, consistent with epithelial origin, is present. Increased uptake and prolonged retention of delocalized lipophilic cations are observed.
Swiss nu/nu mice obtained from Taconic Farm were housed in a pathogen-free environment. Tumors subcutaneously passaged in nude mice were excised under sterile conditions and converted to a single cell suspension using a metal grid with a 0.4 mm mesh. Red blood cells were lysed by incubation with 0.17M ammonium chloride at 4° C. for 20 minutes. Cells were scored for viability with trypan blue. Viable CX-1 cells (2.5 million) made up in 0.1 ml of cell culture medium were injected subcutaneously into each nude mouse. The mice were randomly allocated into a control group (five mice) and a treatment group (five mice per group). The drug treatment was commenced the next day. Doses and schedules were developed empirically and were based mainly on information on LD50 and LD10 obtained from preliminary toxicity studies. The control group received an equivalent volume of hydroxylpropyl-β-cyclodextrin-5% glucose solution.
The pharmaceutical compositions tested comprised solutions in 5% glucose subjected to sonication at concentrations of 1 mg/ml. Those compounds which were not completely dissolved by this procedure were dissolved in hydroxypropyl-β-cyclodextrin using the following method. Hydroxypropyl-β-cyclodextrin (45 g) was mixed with 100 ml of sterilized, double distilled water and stirred for four hours. Each of the compounds to be tested (20 mg) was mixed with 10 ml of hydroxypropyl-β-cyclodextrin solution and sonicated for 60 minutes in the dark. This solution was then diluted in 5% glucose to yield a final compound concentration of 0.5 mg/ml, and further sonicated for 60 minutes in the dark to assure that the compound was completely dissolved.
When the growth of tumors in the control group reached the exponential phase and the size of the tumor was palpable (usually 20 to 30 days after tumor implantation), the experiments were terminated. Tumors in each mouse were excised and weighed using an analytical balance. Total tumor weight in each group from five mice was calculated. Per cent tumor inhibition between the treated group and the control group was then calculated for each group.

human melanoma LOX = experiment: Survival of nude mice implanted with human melanoma LOX; format: in vivo, human melanoma in male athymic Swiss nu/nu mouse; conditions: Mus musculus, ip, 24 h, read-out: T/C (survival)
Description: LOX, a human melanoma cell line, grown subcutaneously in nude mice was excised, trypsinized to yield a single cell suspension using a metal grid with a […]. Red blood cells were lysed by incubation with 0.17 molar ammonium chloride at 4° C. for 20 minutes. Five million viable trypan blue negative cells made up in 0.1 ml of Dulbecco modified Eagles' medium (DME) were injected into the peritoneal cavity of a male athymic Swiss nu/nu mouse. The control group and each treatment group consisted of 5 to 10 mice. Treatment was commenced the following day by intraperitoneal injection.
Ten control mice received 0.25 ml of 2% dextrose on those days the treated groups were injected with the compounds of this invention. The compounds of the General Formulas. (1) to (6) used in this invention which were tested are listed in Table VIII below and the results obtained are shown in Table VIII and FIG. 1-6 of the accompanying drawings. T/C is the ratio, expressed as a percentage of the mean survival age of the treated group to the mean survival age of the untreated control group.

[3] = tested on: human colon carcinoma cell line CX-1; experiment: Colony formation assay, human colon carcinoma CX-1; format: cell-based; conditions: for IC50: Homo sapiens, Colon carcinoma cell, 24 h treatment, colony count after 7 to 10 days; for Selectivity (ratio of IC50 for CV-1 and IC50 for CX-1): CV-1/CX-1
Description: (§1) Human colon carcinoma cell line CX-1 or normal monkey kidney epithelial cell line CV-1 was chosen as representatives of cancer cells and normal cells, respectively. […] CX-1 cells (2,000 cells/well) and CV-1 cells (1,000 cells/well) were plated in 24-well plastic culture plates. […] The control received culture media only. Cells were treated with compounds of General Formulas (1) to (6) at 37° C. for 24 hours. After rinsing with fresh culture medium three times, the cells were further incubated at 37° C. for 7 to 10 days. Cell colonies were fixed and stained with 2% crystal violet in 70% ethanol for 10 minutes and rinsed in water. […] The selectivity is defined as the ratio of IC50 for CV-1 and IC50 for CX-1.

[4] = tested on: normal monkey kidney epithelial cell line CV-1; experiment: Colony formation assay, normal monkey kidney epithelial cells CV-1; conditions: Primates, Epithelial cell, read-out: CV-1 (IC50), Table III; 24 h treatment, colony count after 7 to 10 days;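 note: colonies visualized by crystal violet staining, incubation at 37 °C, IC50 relative to untreated wells given culture medium alone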
Description: as §1

CCN1CCSC1=CC=c1sc(=Cc2sc3c4ccccc4ccc3[n+]2CC)n(CC)c1=O [Compound 116]
T/C (survival) ([1]; 5 mg/kg, i.p. on day 1, 5, 9, 14, 19, 23, 27, 48): > 378% | inhibition in vivo at 5 mg/kg ([2]; 5 mg/kg, i.p. on day 1, 6, 10, 14, 19, 23): 77% | response vs control in vivo at 5 mg/kg (human melanoma LOX; 5 mg/kg, i.p. on day 1, 5, 9, 13, 17, 22): 582%

CCN1C(=CC=c2sc(=Cc3cc[n+](CC)c4ccccc34)n(CC)c2=O)C=Cc2ccccc21 [Compound 247]
IC50 ([3]; read-out: CX-1 (IC50), Table III): 0.1 µg/mL | Selectivity (ratio of IC50 for CV-1 and IC50 for CX-1) ([3]; Table III): 200 | T/C (survival) ([1]; 20 mg/kg, i.p. on day 1, 5, 9, 14, 23, 48): > 378% | IC50 [4]: 20 µg/mL | inhibition in vivo at 20 mg/kg ([2]; 20 mg/kg, i.p. on day 1, 5, 11, 15, 20, 26, 34): 75% | response vs control in vivo at 20 mg/kg (human melanoma LOX; 20 mg/kg, i.p. on day 1, 2, 3, 4, 8, 9): 227%

C=CCn1c(=Cc2sc3c4ccccc4ccc3[n+]2CC)sc(=CC=C2C=CN(CC)c3ccccc32)c1=O [Compound 290]
IC50 ([3]; Table III, read-out: CX-1 (IC50)): 0.025 µg/mL | Selectivity (ratio of IC50 for CV-1 and IC50 for CX-1) ([3]; Table III): 100 | T/C (survival) ([1]; 2 mg/kg, i.p. on day 1, 5, 9, 18, 48): 356% | IC50 [4]: 2.5 µg/mL
